Measurements from patent publication EP0880540B1, “17-BETA-CYCLOPROPYL(AMINO/OXY) 4-AZA STEROIDS AS ACTIVE INHIBITORS OF TESTOSTERONE 5-ALPHA-REDUCTASE AND C17-20-LYASE” (Aventis Pharmaceuticals Inc., priority 1996, dated 1997).

Tests used:
[1] = target: T1, cynomolgus monkey C17,20 lyase (Macaca fascicularis, UniProt Q2XVA1); experiment: In vitro C17,20 lyase assay, testicular microsomes; type: biochemical; conditions: mean of duplicates
T1 construct: microsomal preparations of the enzyme from testicular tissue; from tissue; host or cells: cynomolgus monkey testes, microsomes
T1 sequence (Q2XVA1 1-508): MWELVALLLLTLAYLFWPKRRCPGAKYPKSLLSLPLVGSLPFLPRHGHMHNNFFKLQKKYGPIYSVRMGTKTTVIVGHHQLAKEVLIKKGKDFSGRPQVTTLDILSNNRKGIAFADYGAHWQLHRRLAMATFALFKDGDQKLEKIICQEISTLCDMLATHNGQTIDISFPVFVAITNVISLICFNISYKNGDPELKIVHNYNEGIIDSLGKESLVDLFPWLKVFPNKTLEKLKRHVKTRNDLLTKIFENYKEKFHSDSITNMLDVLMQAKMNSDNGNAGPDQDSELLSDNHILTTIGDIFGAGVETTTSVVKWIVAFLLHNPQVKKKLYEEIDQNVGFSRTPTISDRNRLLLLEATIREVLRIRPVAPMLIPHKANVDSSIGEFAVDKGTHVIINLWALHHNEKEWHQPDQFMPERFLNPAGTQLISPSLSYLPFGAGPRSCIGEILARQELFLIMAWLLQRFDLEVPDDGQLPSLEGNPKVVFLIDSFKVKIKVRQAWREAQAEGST
Experimental: In vitro C17,20 lyase assays: Compounds were tested for inhibition of cynomolgus monkey C17,20 lyase in vitro using microsomal preparations of the enzyme from testicular tissue. Testes were removed from anesthetized animals and flash frozen in liquid nitrogen. Microsomes were isolated as described in Schatzman et al., Anal. Biochem. 175, 219-226 (1988). The compound to be tested was dissolved in dimethyl sulfoxide and diluted in 0.05 M potassium phosphate buffer, pH 7.4, to give the desired concentrations of test compound, in an amount which contributed 0.1% v/v DMSO to the total assay volume. Assays contained 0.05 M potassium phosphate buffer, pH 7.4, an NADPH regenerating system (1 mM NADPH, 5 mM glucose-6-phosphate, 1 IU/mL glucose-6-phosphate dehydrogenase), test compound, substrate and microsomal protein in a total volume of 0.2 mL. Control assays contained all components, including dimethyl sulfoxide, but not test ccmpound. All assays were performed in duplicate. The test compound was incubated with 20 to 62 µg/mL microsomal protein, buffer, and the NADPH regenerating system described above at 34°C for 0 or 40 minutes. Aliquots of 180 µL were then removed and assayed for enzyme activity by addition to 7-[^3H]-17α-hydroxypregnenolone (11.2 mCi/mmole; 0.2 µCi per assay) plus unlabeled 17α-hydroxypregnenolone dissolved in DMSO, contributing 2.5% v/v to the final assay mix, and phosphate buffer to give a total substrate concentration of 0.05 µM (=Km) per assay and subsequent incubation at 34°C for 6 minutes. Each assay was terminated by addition of 5 mL of chloroform:methanol (2:1). Carrier steroids representing substrates and produces (17α-hydroxypregnenolone, dehydroepiandrosterone, and androst-5-ene-3β,17β-diol) and 0.8 mL of distilled, deionized water were also added at this time. The steroids were extracted by the method of Moore and Wilson (Methods in Enzymol., eds. O. Malley, B.W. and Hardman, J.G. 36, 1975, pp. 466-474). The organic phase containing the steroids was evaporated using nitrogen gas, the residues dissolved in 18% tetrahydrofuran (v/v) in hexane, and the steroids were separated by HPLC on a Si60 (5 µm) column (250 x 4 mm) using a gradient of 18-22% tetrahydrofuran (v/v) in hexane. Radioactivity in the steroid peaks was measured using a Radiomatic® Model ES or Model A515 Flo-One® detector.
The enzyme activity for each assay was calculated from the percent conversion of substrate to products, and the results were expressed as percent inhibition of control. The following results were obtained, wherein the values indicated are the mean of duplicate determinations: Table 1: […]

Dunning H Tumor = experiment: Dunning H tumor growth in rats; type: in vivo, male Copenhagen rats; conditions: MDL 105831 15 mg/kg/day PO, MDL 15910 50 mg/kg/day PO
From the text: As described in J.T. Isaacs & D.S. Coffey, Cancer Res. 41:5070-5075 (1981); W.J. Ellis & J.T. Issacs, Cancer Res. 45:6041-6050 (1985); T.W. Bedding & A.V. Schally, The Prostate 6:219-232 (1985) and P.E. Juniewicz et al. The Prostate 18:105-115 (1991), male Copenhagen rats were obtained from HARLAN-SPRAGUE-DAWLEY Inc. (Indianapolis, IN), and were individually housed in suspended wire cages and provided laboratory rodent chow (Purina 5001 pellets, Purina Mills, St. Louis, MO) and deionized water ad libum. The rats were anesthetized using sodium pentobarbital and the hair was clipped from the back dorsal area. Tumors from donor Copenhagen rats were cut into fragments of 10 mm^3 and implanted subcutaneously (one site per rat) into the prepared dorsal area.
Animals were selected (105 days post implantation) for the treatment phase based on tumor size. Ten animals were anesthetized with sodium pentobarbital and bilaterally castrated. The remaining animals were assigned to treatment groups (ten per group) based on mean group tumor size. Animals were kept separate throughout the study. The tested compounds were prepared in solution or suspension in a lecithin vehicle (L-α-phosphatidylcholine type XV-E) containing methylparaben and propylparaben. All treatments were performed by oral gavage (per os) at 2 cc/kg each day of study. Tumor size and rat body weights were recorded every seven days over a period of 35 days. Twenty-four hours after the last treatment animals were euthenized by CO2 and the tumors, prostate, seminal vesicles and testes were removed and weighed. In Table 4, average tumor growth is determined from the corrected group means over a 35 day period after treatment was started. […] The animals eliminated from the calculation of the corrected means were in Figure 6, animals 8, 9, 10; in Figure 7, animals 18, 19 and 20; in Figure 8, animals 27, 28, 29 and 30; and in Figure 9, animals 37, 39 and 40. The castrated controls in Figure 10 present a different problem. Here it is believed that the different tumor volumes observed throughout the group is attributable to the different sizes at the beginning of the study. Since the mean variance here is clearly attributable to factors other than the effect of the castration itself, animals 47, 48, 49 and 50 were deleted from the corrected mean. Of these, animal 47 died during the treatment period.
Table 4 indicates the average daily growth rate, measured from the corrected mean tumor size on day 35 and day 0, comparing MDL 105831 and flutamide (MDL 15910), a known androgen receptor antagonist. […]

PC-82 Human Tumor = experiment: PC-82 human tumor growth in nude mice; type: in vivo, male nude mice; conditions: MDL 103432 and MDL 105831 50 mg/kg B.I.D., MDL 15910 15 mg/kg B.I.D., per os
From the text: As described in van Steenbrugge, G.J. et al., J. Urol 131: 812-817 (1984) van Steenbrugge G.J. et al., The Prostate 11: 195-210 (1987) and Redding, T.W. et al., Cancer Research 52, 2538-2544 (1992), male nude mice (Hsd:athymic, Nude-nu) were obtained from Harlan Sprague Dawley. Mice were housed in sterilized micro-isolators and fed autoclaved ABLE® rodent chow (Purina Mills Inc., St. Louis, MO) and deionized water, adlibitum. Tumor-donating mice were first anesthetized using sodium pentobarbital and then sacrificed by cervical dislocation. The tumor was subsequently excised and placed in a petri dish containing ice-cold Hanks balanced salt solution. Tumors were cut into 2-3 mm cubes for implantation. Recipient animals were first anesthetized with 50 mg/kg pentobarbital, then implanted, by use of a trocar, with tumor fragments (one per mouse) in the dorsal area. Animals were separated into two control groups, one with vehicle alone and the other castrated, and the treatment groups, where n is the number of animals in each group.
Animals were selected for treatment groups based on tumor size. Each test compound was prepared as a solution or suspension in a lecithin vehicle (L-α-phosphatidylcholine type XV-E) containing methylparaben and propylparaben at a dose volume of 10 cc/kg. Animals were treated for 42 days by oral gavage (per os) seven days per week. Twenty-four hours after the last treatment the animals were euthenized by CO2 and tumors were removed and weighed. During the study period, mice were weighed and palpated weekly for tumors. In Table 5, average tumor growth is determined from the corrected group means over a 28 day period after treatment was started. […] The following animal data was deleted before computation of the corrected mean data in Table 5, Fig. 1: animals 4 and 44; Fig. 2: animals 10, 38 and 42; Fig. 3: Animal 39; Fig. 4: Animals 8, 9 and 49; Fig. 5: Animals 37 and 40 and 41.
Table 5 illustrates the average tumor growth in animals treated with 4-aza-17β-(cyclopropyloxy)-5α-androstan-3-one (MDL 103432; 50 mg/kg B.I.D.) 4-aza-17β-(cyclopropylamino)-androst-5(6)-en-3-one (MDL 105831; 50 mg/kg B.I.D.) and flutamide (MDL 15,910; 15 mg/kg B.I.D.), a known androgen receptor antagonist. The average growth rate of each tested compound relative to the vehicle and castrated controls is consistent with the in vivo inhibition of androgens.

SMILES	inhibition at 0.1 µM ([1]; preincubation 0 min) [%]	inhibition at 0.1 µM ([1]; preincubation 40 min) [%]	inhibition at 1 µM ([1]; preincubation 0 min) [%]	inhibition at 1 µM ([1]; preincubation 40 min) [%]	inhibition at 10 µM ([1]; preincubation 0 min) [%]	inhibition at 10 µM ([1]; preincubation 40 min) [%]	Tumor Growth in Dunning H Rat, Day 0 (Dunning H Tumor; Day 0 (baseline), corrected group mean) [mm^3]	Tumor Growth in Dunning H Rat, Day 7 (Dunning H Tumor; Day 7, corrected group mean) [mm^3]	Tumor Growth in Dunning H Rat, Day 16 (Dunning H Tumor; Day 16, corrected group mean) [mm^3]	Tumor Growth in Dunning H Rat, Day 21 (Dunning H Tumor; Day 21, corrected group mean) [mm^3]	Tumor Growth in Dunning H Rat, Day 29 (Dunning H Tumor; Day 29, corrected group mean) [mm^3]	Tumor Growth in Dunning H Rat, Day 35 (Dunning H Tumor; Day 35, corrected group mean) [mm^3]	Δv/Δt (day 35-day 0) (Dunning H Tumor; average daily growth rate from corrected mean tumor size) [mm^3/day]	Tumor Growth in PC-82 Human Tumor in Male Nude Mice, Day 7 (PC-82 Human Tumor; Day 7, corrected group mean) [mm^3]	Tumor Growth in PC-82 Human Tumor in Male Nude Mice, Day 15 (PC-82 Human Tumor; Day 15, corrected group mean) [mm^3]	Tumor Growth in PC-82 Human Tumor in Male Nude Mice, Day 21 (PC-82 Human Tumor; Day 21, corrected group mean) [mm^3]	Tumor Growth in PC-82 Human Tumor in Male Nude Mice, Day 28 (PC-82 Human Tumor; Day 28, corrected group mean) [mm^3]	Tumor Growth in PC-82 Human Tumor in Male Nude Mice, Day 35 (PC-82 Human Tumor; Day 35, corrected group mean) [mm^3]	Tumor Growth in PC-82 Human Tumor in Male Nude Mice, Day -4 (PC-82 Human Tumor; Day -4 (before treatment), corrected group mean) [mm^3]	Δv/Δt (day 35-day 7) (PC-82 Human Tumor; average tumor growth over 28 days from corrected group means) [mm^3/day]
CN1C(=O)CC[C@@]2(C)C1=CC[C@H]1[C@@H]3CC[C@H](OC4CC4)[C@@]3(C)CC[C@@H]12 (stereo in doubt) [MDL 104,313, 17β-Cyclopropyloxy-4-methyl-4-aza-androst-5-en-3-one]	-18.4	-8.7	23.8	39.9	63.6	70.2	–	–	–	–	–	–	–	–	–	–	–	–	–	–
CC12C=CC(=O)N[C@@H]1CCC1C2CCC2(C)C1CC[C@@H]2OC1CC1 (stereo partly drawn) [MDL 103,129, 17β-Cyclopropyloxy-4-aza-5α-androst-1-en-3-one]	6.4	18.3	40.7	46.9	77.3	84.3	–	–	–	–	–	–	–	–	–	–	–	–	–	–
CC(C)C(=O)Nc1ccc([N+](=O)[O-])c(C(F)(F)F)c1 [MDL 15910, N-(3-Trifluoromethyl-4-nitro-phenyl)-isobutyramide, reference compound]	–	–	–	–	–	–	317.00	604.64	877.86	851.29	1313.57	1214.57	25.64	222.7	262.9	319.7	563.4	479.3	138.7	9.16
